Experimental data as given in patent US20110207745A1 (priority 2009, published 2011).
Counter-ions that a name gives are not always drawn. Like-named read-outs stand apart in the source and are kept apart here.

Assays:
[1] = Plasma exposure of efficacious doses in rodents; type: in vivo; details: separate tests of anxiolysis and antidepressant activity
[2] = type: physicochemical; details: water vapor sorption, typical laboratory humidity (55% RH)
Protocol: Data are collected on a VTI SGA-100 moisture balance system. For sorption isotherms, a sorption range of about 0% to about 90% relative humidity (RH) and a desorption range of about 90 to about 0% RH in 10% RH increments are used for analysis. The samples are not dried prior to analysis. Equilibrium criteria used for analysis are less than 0.0100% weight change in 5 minutes with a maximum equilibration time of 3 hours if the weight criterion is not met. Data are not corrected for the initial moisture content of the samples.
The amorphous material was placed into preset RH conditions (50% and 75% RH) for 24 hours to check dynamic moisture absorption as well as deliquescence.

[3] = Solubility in simulated biological media; type: physicochemical; details: mean ± SD, n = 2
Excerpt: Solubility and Dissolution Rate Data.
Solubility and Dissolution Rate Data. […]

[4] = Protocol: Stress Experiments. Solids are stressed under different temperature or relative humidity (RH) environments for a measured time period. Specific RH values are achieved by placing the sample inside sealed chambers containing saturated salt solutions, as known in the art. The salt solutions are selected and prepared following an ASTM standard procedure. Samples are analyzed by XRPD immediately after removal from the stress environment.
Analyses are carried out on an Agilent® model 1100 high performance liquid chromatograph using gradient elution on a reversed phase column utilizing ultraviolet (UV) detection. Approximately 25 mg of the sample is weighed accurately and dissolved in methanol/water/trifluoroacetic acid (35:65:0.05) to a volume of 50 mL. The sample solution is analysed using the conditions specified below:
The content of the drug and related substances are quantified by area (%).
Chemical Stability. The chemical stability of Form I of the mono-HCl salt of Compound A1 was assessed by stressing the material at various temperature/relative humidity/light conditions, then analyzing by HPLC.
Chemical Stability Data. The chemical stability of a sample of Form I of the sesquifumarate salt of Compound A1 was assessed by stressing the material at various temperature/relative humidity/light conditions, then analyzing by HPLC.

[5] = Intrinsic dissolution rate in simulated biological media; type: physicochemical
Protocol: Intrinsic dissolution rate is determined at 37° C. using a Distek Dissolution System model 5100A with a sample size of approximately 200 mg (0.5 cm^2 disc) and 500 mL dissolution medium. The paddle speed is set to 500 rpm and the paddle height to approximately 2.54 cm above the disc surface. The concentration of sample in solution is determined by HPLC.

[6] = 0.1M phosphate buffer, initial pH 7.5
[7] = FaSSIF (fasted-state simulated intestinal fluid), initial pH 6.51
[8] = FeSSIF (fed-state simulated intestinal fluid), initial pH 5.03
[9] = SGF (simulated gastric fluid), initial pH 1.3
[10] = Ultraviolet light, 25° C./60% RH, 2x ICH (2 days), stored open
[11] = Ultraviolet light, 25° C./60% RH, 3x ICH (3 days), stored open
[12] = Ultraviolet light, 25° C./60% RH, ICH (1 day), stored open
[13] = White light, 25° C./60%, ICH (7 days), stored open

## CCN(CC)C(=O)c1ccc([C@H](c2cccc(N)c2)N2CCN(Cc3ccc(F)cc3)CC2)cc1 [Form I of the sesquifumarate salt of Compound A1] [4-{(R)-(3-aminophenyl)[4-(4-fluorobenzyl)piperazin-1-yl]methyl}-N,N-diethylbenzamide]
[1]
  mean plasma exposures produced by efficacious doses: ≥ 2 ng/mL
[2]
  moisture content at equilibrium: approximately 4.5%
[3]; [6]
  Solubility, 3 hr: 180 µg/mL
  Solubility, 24 hr: 120 µg/mL
[3]; [7]
  Solubility, 3 hr: 4400 µg/mL
  Solubility, 24 hr: 4130 µg/mL
[3]; [8]
  Solubility, 3 hr: 2540 µg/mL
  Solubility, 24 hr: 2660 µg/mL
[3]; [9]
  Solubility, 3 hr: 17400 µg/mL
  Solubility, 24 hr: 17100 µg/mL
[4]; 25° C./60% RH, 7 days
  % Purity (after challenge): 99.6%
  % Purity (reference material): 104.0%
[4]; 40° C./75% RH, 7 days
  % Purity (after challenge): 99.5%
  % Purity (reference material): 103.5%
[4]; 60° C./80% RH, 2 weeks, HPLC area %
  % Purity after 60° C./80% RH, 2 wks: 86.5%
[4]; 60° C./80% RH, 4 weeks, HPLC area %
  % Purity after 60° C./80% RH, 4 wks: 80.3%
[4]; 80° C., 2 weeks, HPLC area %
  % Purity after 80° C., 2 wks: 91.8%
[4]; 80° C., 4 weeks, HPLC area %
  % Purity after 80° C., 4 wks: 86.1%
[4]; 80° C., 7 days
  % Purity (after challenge): 97.1%
  % Purity (reference material): 99.8%
[4]; Photostability 3X ICH conditions, HPLC area %
  Purity after Photostability 3X ICH conditions: 93.2%
[4]; Reference, 0 days
  % Purity (after challenge): 99.6%
  % Purity (reference material): 100%
[4]; [10]
  % Purity (after challenge): 99.6%
  % Purity (reference material): 100.7%
[4]; [11]
  % Purity (after challenge): 99.4%
  % Purity (reference material): 100.9%
[4]; [12]
  % Purity (after challenge): 99.5%
  % Purity (reference material): 100.2%
[4]; [13]
  % Purity (after challenge): 99.5%
  % Purity (reference material): 101.7%
[4]; initial, before storage, HPLC area %
  Initial Purity: 98.6%
[5]; FaSSIF, initial pH 6.51, mean ± SD, n = 2
  IDR (intrinsic dissolution rate): 553 μg/min/cm^2
[5]; FaSSIF, initial pH 6.51, mean ± SD, n = 2, listed as Compound A1 Sesquifumarate Salt
  IDR (intrinsic dissolution rate): 553 ± 68.9 μg/min/cm^2
[5]; FeSSIF, initial pH 5.03, mean ± SD, n = 2
  IDR (intrinsic dissolution rate): 33.5 μg/min/cm^2
[5]; FeSSIF, initial pH 5.03, mean ± SD, n = 2, listed as Compound A1 Sesquifumarate Salt
  IDR (intrinsic dissolution rate): 33.5 ± 1.15 μg/min/cm^2
[5]; SGF, initial pH 1.3
  IDR (intrinsic dissolution rate): too soluble to permit determination of its IDR
